# Patent US9597330B2, “Drugs for treating respiratory diseases” (DAIICHI SANKYO COMPANY, LIMITED, priority 2013, dated 2017)
# Molecular target: hNav 1.7 (Homo sapiens (Human), UniProt Q15858)
# Assay: Electrophysiological evaluation, automated patch clamp (IonWorks Quattro, Population Patch Clamp mode)
# Type: cell-based
# Conditions: HEK293A cells stably expressing hNav 1.7/β1/β2; response to second depolarization pulse, pre-pulse potential set to V1/2; read-out: hNav1.7 IC50
# Sequence of hNav 1.7 (Q15858 whole entry): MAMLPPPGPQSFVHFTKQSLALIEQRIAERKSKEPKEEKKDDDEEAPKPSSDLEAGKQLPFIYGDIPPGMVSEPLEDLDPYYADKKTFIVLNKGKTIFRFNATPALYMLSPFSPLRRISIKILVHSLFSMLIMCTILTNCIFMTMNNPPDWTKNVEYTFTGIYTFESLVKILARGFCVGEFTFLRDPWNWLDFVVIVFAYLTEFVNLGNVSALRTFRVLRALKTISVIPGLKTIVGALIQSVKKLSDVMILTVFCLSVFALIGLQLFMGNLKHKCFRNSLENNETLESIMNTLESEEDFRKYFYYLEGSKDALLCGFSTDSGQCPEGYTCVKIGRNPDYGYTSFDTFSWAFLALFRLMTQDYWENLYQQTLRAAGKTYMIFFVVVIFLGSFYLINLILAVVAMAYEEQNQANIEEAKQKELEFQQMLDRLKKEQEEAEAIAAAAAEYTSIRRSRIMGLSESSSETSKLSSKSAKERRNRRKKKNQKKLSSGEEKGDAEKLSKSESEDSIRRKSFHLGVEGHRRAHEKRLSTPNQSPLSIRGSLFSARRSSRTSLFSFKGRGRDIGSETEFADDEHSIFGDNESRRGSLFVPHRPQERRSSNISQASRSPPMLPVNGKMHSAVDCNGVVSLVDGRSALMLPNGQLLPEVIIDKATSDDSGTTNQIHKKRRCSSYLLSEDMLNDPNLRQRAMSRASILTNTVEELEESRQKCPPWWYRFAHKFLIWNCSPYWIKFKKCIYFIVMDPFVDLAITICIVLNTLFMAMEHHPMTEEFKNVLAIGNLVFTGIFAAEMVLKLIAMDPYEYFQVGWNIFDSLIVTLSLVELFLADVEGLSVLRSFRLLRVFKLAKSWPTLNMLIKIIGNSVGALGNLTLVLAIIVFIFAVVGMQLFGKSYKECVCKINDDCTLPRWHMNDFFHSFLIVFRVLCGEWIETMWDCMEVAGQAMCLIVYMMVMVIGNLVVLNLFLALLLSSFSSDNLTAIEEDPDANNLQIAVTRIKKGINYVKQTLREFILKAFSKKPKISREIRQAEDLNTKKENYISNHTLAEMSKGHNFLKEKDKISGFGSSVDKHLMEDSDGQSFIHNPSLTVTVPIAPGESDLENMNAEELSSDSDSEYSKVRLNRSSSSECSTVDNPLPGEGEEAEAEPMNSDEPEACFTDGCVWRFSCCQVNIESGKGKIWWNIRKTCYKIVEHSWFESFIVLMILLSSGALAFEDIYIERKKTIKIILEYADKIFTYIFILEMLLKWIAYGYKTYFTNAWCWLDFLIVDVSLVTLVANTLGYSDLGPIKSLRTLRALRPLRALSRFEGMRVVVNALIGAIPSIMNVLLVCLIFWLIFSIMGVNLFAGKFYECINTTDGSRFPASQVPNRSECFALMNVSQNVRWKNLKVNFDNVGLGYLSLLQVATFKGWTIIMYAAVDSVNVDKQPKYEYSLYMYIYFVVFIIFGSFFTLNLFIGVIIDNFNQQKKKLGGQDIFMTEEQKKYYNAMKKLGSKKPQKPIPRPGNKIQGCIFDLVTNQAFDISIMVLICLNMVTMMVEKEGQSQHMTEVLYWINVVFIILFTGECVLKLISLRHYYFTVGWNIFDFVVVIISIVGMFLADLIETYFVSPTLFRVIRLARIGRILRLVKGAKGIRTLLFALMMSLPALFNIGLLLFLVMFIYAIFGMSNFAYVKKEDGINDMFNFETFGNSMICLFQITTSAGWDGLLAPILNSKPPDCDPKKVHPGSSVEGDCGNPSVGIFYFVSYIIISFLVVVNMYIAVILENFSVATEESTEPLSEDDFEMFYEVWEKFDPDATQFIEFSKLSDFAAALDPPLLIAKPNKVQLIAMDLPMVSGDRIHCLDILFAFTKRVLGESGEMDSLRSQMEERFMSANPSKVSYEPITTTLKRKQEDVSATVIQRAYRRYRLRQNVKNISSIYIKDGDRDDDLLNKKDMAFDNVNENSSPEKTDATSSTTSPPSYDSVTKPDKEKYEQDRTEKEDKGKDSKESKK
# Sequence of hNav 1.7 (Q07699 19-218 partner): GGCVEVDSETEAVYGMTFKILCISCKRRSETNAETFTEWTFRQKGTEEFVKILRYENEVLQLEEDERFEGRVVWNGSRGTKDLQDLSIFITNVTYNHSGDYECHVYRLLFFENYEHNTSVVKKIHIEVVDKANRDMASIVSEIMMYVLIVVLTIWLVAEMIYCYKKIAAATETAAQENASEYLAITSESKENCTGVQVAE
# Sequence of hNav 1.7 (O60939 30-215 partner): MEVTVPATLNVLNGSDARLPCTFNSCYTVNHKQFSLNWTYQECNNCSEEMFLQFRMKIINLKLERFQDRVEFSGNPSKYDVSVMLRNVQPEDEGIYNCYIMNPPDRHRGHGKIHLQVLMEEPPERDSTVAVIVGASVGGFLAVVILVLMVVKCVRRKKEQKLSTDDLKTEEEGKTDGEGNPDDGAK
row,IC50,SMILES
1,37 nM,"Cn1nccc1[C@H]1CCCCC[C@@H]1Oc1cc(F)c(S(=O)(=O)Nc2ccncn2)cc1Cl (relative stereo) [Compound 19, 5-Chloro-2-fluoro-4-{[(1S*,2R*)-2-(1-methyl-1H-pyrazol-5-yl)cycloheptyl]oxy}-N-(pyrimidin-4-yl)benzenesulfonamide]"
2,91 nM,"Cn1nccc1[C@H]1CCCCC[C@@H]1Oc1cc(F)c(S(=O)(=O)Nc2ccncn2)cc1F (relative stereo) [Compound 9, 2,5-Difluoro-4-{[(1S*,2R*)-2-(1-methyl-1H-pyrazol-5-yl)cycloheptyl]oxy}-N-(pyrimidin-4-yl)benzenesulfonamide]"
